Legend:
[1] = molecular target: T1, hM1 (human Muscarinic receptor subtype 1) (Homo sapiens, UniProt P11229); test: Human M1 calcium mobilization FLIPR assay; format: cell-based; settings: hM1 expressed in CHO cells, intracellular Ca2+ release, read-out: hM1 EC50
T1 construct: expressed in transfected cells; host or cells: CHO cells (Chinese hamster ovary cells, ATCC)
T1 sequence (P11229 1-460): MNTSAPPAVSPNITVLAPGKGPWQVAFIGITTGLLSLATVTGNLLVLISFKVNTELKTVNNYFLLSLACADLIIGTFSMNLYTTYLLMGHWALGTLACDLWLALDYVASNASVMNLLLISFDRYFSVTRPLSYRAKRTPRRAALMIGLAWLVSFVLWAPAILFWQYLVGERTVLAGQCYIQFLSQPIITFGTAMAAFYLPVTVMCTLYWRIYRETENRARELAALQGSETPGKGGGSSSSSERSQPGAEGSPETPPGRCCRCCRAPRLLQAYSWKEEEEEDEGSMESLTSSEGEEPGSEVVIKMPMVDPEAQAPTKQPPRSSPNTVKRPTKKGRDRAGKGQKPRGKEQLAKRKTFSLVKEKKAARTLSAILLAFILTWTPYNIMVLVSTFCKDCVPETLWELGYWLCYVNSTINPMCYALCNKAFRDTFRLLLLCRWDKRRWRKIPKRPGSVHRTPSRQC
Summary of the method: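 CHO cells expressing the receptor, dye-loaded at 37°C for 60 min, read on FLIPR at 510-570 nm. Agonism taken from compound-induced Ca2+ rise (max RFU for M1); M3/M5 inhibition measured against 2 nM acetylcholine using max minus min RFU. 10-point threefold dilutions, sigmoidal fits.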

[2] = molecular target: T2, cloned human M4 receptor (human Muscarinic receptor subtype 4) (Homo sapiens, UniProt P08173); test: hM4 receptor GTPγS binding; format: biochemical; settings: CHO cell membranes expressing hM4; [35S]GTPγS binding; read-out: hM4 EC50
T2 construct: purchased Perkin-Elmer RBHM4M; host or cells: Chinese hamster ovary cells (CHO) membranes
T2 sequence (P08173 1-479): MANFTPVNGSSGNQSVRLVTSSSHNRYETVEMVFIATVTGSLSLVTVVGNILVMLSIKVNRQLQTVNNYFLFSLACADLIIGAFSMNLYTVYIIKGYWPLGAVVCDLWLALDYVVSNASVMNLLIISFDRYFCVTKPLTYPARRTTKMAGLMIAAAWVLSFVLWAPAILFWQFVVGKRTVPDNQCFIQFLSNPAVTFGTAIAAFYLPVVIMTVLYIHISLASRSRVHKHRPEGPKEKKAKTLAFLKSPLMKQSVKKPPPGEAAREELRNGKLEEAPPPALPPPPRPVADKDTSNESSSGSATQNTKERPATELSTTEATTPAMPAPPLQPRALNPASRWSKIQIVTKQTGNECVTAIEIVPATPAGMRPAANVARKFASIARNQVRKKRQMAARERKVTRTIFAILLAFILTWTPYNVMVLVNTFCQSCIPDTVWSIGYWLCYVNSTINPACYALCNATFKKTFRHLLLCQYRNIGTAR
Method: hM4 Receptor GTPγS Binding
Membranes produced from Chinese hamster ovary cells (CHO) expressing the cloned human M4 receptor (human Muscarinic receptor subtype 4, gene bank access NM_000741), are obtained from Perkin-Elmer (RBHM4M). The membranes are thawed at 37° C., passed 3 times through a 23-gauge blunt-end needle, diluted in the GTPγS binding buffer (50 mM Hepes, 20 mM NaOH, 100 mM NaCl, 1 mM EDTA, 5 mM MgCl2, pH 7.4, 100 μM DTT). The EC50, IC50 and Emax of the compounds of the invention are evaluated from 10-point dose-response curves (three fold concentration range) done in 60 μl in 384-well non-specific binding surface plate (Corning). Ten microliters from the dose-response curves plate (5× concentration) are transferred to another 384 well plate containing 25 μl of the following: 10 μg of hM4 membranes, 500 μg of Flashblue beads (Perkin-Elmer) and GDP 40 μM. An additional 15 μl containing 3.3× (60,000 dpm) of GTPγ^35S (0.4 nM final) are added to the wells resulting in a total well volume of 50 μl. Basal and maximal stimulated [^35S]GTPγS binding are determined in absence and presence of 30 μM final of acetylcholine agonist. The membranes/beads mix are pre-incubated for 15 minutes at room temperature with 40 μM GDP prior to distribution in plates (20 μM final). The reversal of acetylcholine-induced stimulation (10 μM final) of [^35S]GTPγS binding is used to assay the antagonist properties (IC50) of the compounds. The plates are incubated for 60 minutes at room temperature then centrifuged at 400 rpm for 5 minutes. The radioactivity (cpm) is counted in a Trilux (Perkin-Elmer).
Values of EC50, IC50 and Emax are obtained using sigmoidal fits of a non-linear curve-fitting program (XLfit version 4.2.2 Excel add-in version 4.2.2 build 18 math 1Q version 2.1.2 build 18) of percent stimulated [^35S]GTPγS binding vs. log(molar ligand). All pEC50 and plC50 values are reported as arithmetic means ±standard error of mean of ‘n’ independent experiments.

SMILES	EC50 [1]	EC50 [2]
Cc1ccc2c(c1)[nH]c(=O)n2C1CCN(C2(C)CCN(C(=O)OCCF)C2)CC1 (single isomer, unassigned) [Example 27, 2-fluoroethyl 3-methyl-3-(4-(5-methyl-2-oxo-2,3-dihydro-1H-benzo[d]imidazol-1-yl)piperidin-1-yl)pyrrolidine-1-carboxylate]	10.8 nM	3.09 µM
Cc1ccc2[nH]c(=O)n(C3CCN(C4(C)CCN(C(=O)OCCF)C4)CC3)c2c1 (single isomer, unassigned) [Example 28, 2-fluoroethyl 3-methyl-3-(4-(6-methyl-2-oxo-2,3-dihydro-1H-benzo[d]imidazol-1-yl)piperidin-1-yl)pyrrolidine-1-carboxylate]	10 nM	8.39 µM
CC1(N2CCC(n3c(=O)[nH]c4ccccc43)CC2)CCN(C(=O)OCCF)C1 (single isomer, unassigned) [Example 31, 2-fluoroethyl 3-methyl-3-(4-(2-oxo-2,3-dihydro-1H-benzo[d]imidazol-1-yl)piperidin-1-yl)pyrrolidine-1-carboxylate]	13.1 nM	1.19 µM
CC1(N2CCC(n3c(=O)[nH]c4ccccc43)CC2)CCN(C(=O)OCCF)C1 (single isomer, unassigned) [Example 32, 2-fluoroethyl 3-methyl-3-(4-(2-oxo-2,3-dihydro-1H-benzo[d]imidazol-1-yl)piperidin-1-yl)pyrrolidine-1-carboxylate]	52.1 nM	33.7 µM
CC#CCOC(=O)N1CCC(C)(N2CCC(n3c(=O)[nH]c4ccccc43)CC2)C1 (single isomer, unassigned) [Example 33, but-2-ynyl 3-methyl-3-(4-(2-oxo-2,3-dihydro-1H-benzo[d]imidazol-1-yl)piperidin-1-yl)pyrrolidine-1-carboxylate]	1.7 nM	0.316 µM
CC#CCOC(=O)N1CCC(C)(N2CCC(n3c(=O)[nH]c4ccccc43)CC2)C1 (single isomer, unassigned) [Example 34, but-2-ynyl 3-methyl-3-(4-(2-oxo-2,3-dihydro-1H-benzo[d]imidazol-1-yl)piperidin-1-yl)pyrrolidine-1-carboxylate]	14.7 nM	1.67 µM
C#CCOC(=O)N1CCC(C)(N2CCC(n3c(=O)[nH]c4cc(F)ccc43)CC2)C1 (single isomer, unassigned) [Example 36, prop-2-ynyl 3-(4-(5-fluoro-2-oxo-2,3-dihydro-1H-benzo[d]imidazol-1-yl)piperidin-1-yl)-3-methylpyrrolidine-1-carboxylate]	32 nM	6.83 µM
Cc1ccc2[nH]c(=O)n(C3CCN(C4(C)CCN(C(=O)OC(C)C)C4)CC3)c2c1 (single isomer, unassigned) [Example 39, isopropyl 3-methyl-3-(4-(6-methyl-2-oxo-2,3-dihydro-1H-benzo[d]imidazol-1-yl)piperidin-1-yl)pyrrolidine-1-carboxylate]	26.7 nM	> 90 µM
Cc1ccc2[nH]c(=O)n(C3CCN(C4(C)CCN(C(=O)OC(C)C)C4)CC3)c2c1 (single isomer, unassigned) [Example 40, isopropyl 3-methyl-3-(4-(6-methyl-2-oxo-2,3-dihydro-1H-benzo[d]imidazol-1-yl)piperidin-1-yl)pyrrolidine-1-carboxylate]	36.3 nM	> 22.3 µM
C#CCOC(=O)N1CCC(C)(N2CCC(n3c(=O)[nH]c4ccc(C)cc43)CC2)C1 (single isomer, unassigned) [Example 41, prop-2-ynyl 3-methyl-3-(4-(6-methyl-2-oxo-2,3-dihydro-1H-benzo[d]imidazol-1-yl)piperidin-1-yl)pyrrolidine-1-carboxylate]	23.5 nM	8.8 µM
C#CCOC(=O)N1CCC(C)(N2CCC(n3c(=O)[nH]c4ccc(C)cc43)CC2)C1 (single isomer, unassigned) [Example 43, prop-2-ynyl 3-methyl-3-(4-(6-methyl-2-oxo-2,3-dihydro-1H-benzo[d]imidazol-1-yl)piperidin-1-yl)pyrrolidine-1-carboxylate]	2.5 nM	0.46 µM
C#CCOC(=O)N1CCC(C)(N2CCC(n3c(=O)[nH]c4cc(C)ccc43)CC2)C1 (single isomer, unassigned) [Example 44, prop-2-ynyl 3-methyl-3-(4-(5-methyl-2-oxo-2,3-dihydro-1H-benzo[d]imidazol-1-yl)piperidin-1-yl)pyrrolidine-1-carboxylate]	< 2.3 nM	0.107 µM
COC(=O)N1CCC(C)(N2CCC(n3c(=O)[nH]c4ccc(C)cc43)CC2)C1 (single isomer, unassigned) [Example 45, methyl 3-methyl-3-(4-(6-methyl-2-oxo-2,3-dihydro-1H-benzo[d]imidazol-1-yl)piperidin-1-yl)pyrrolidine-1-carboxylate]	14.1 nM	11.2 µM
COC(=O)N1CCC(C)(N2CCC(n3c(=O)[nH]c4ccc(C)cc43)CC2)C1 (single isomer, unassigned) [Example 47, methyl 3-methyl-3-(4-(6-methyl-2-oxo-2,3-dihydro-1H-benzo[d]imidazol-1-yl)piperidin-1-yl)pyrrolidine-1-carboxylate]	< 3.2 nM	0.907 µM
COC(=O)N1CCC(C)(N2CCC(n3c(=O)[nH]c4cc(C)ccc43)CC2)C1 (single isomer, unassigned) [Example 48, methyl 3-methyl-3-(4-(5-methyl-2-oxo-2,3-dihydro-1H-benzo[d]imidazol-1-yl)piperidin-1-yl)pyrrolidine-1-carboxylate]	8.5 nM	3.48 µM
CCOC(=O)N1CCC(C)(N2CCC(n3c(=O)[nH]c4ccc(F)cc43)CC2)C1 (single isomer, unassigned) [Example 49, ethyl 3-(4-(6-fluoro-2-oxo-2,3-dihydro-1H-benzo[d]imidazol-1-yl)piperidin-1-yl)-3-methylpyrrolidine-1-carboxylate]	15.1 nM	9.48 µM
CCOC(=O)N1CCC(C)(N2CCC(n3c(=O)[nH]c4ccc(F)cc43)CC2)C1 (single isomer, unassigned) [Example 50, ethyl 3-(4-(6-fluoro-2-oxo-2,3-dihydro-1H-benzo[d]imidazol-1-yl)piperidin-1-yl)-3-methylpyrrolidine-1-carboxylate]	2.2 nM	2.02 µM
COC(=O)N1CCC(C)(N2CCC(n3c(=O)[nH]c4ccc(F)cc43)CC2)C1 (single isomer, unassigned) [Example 52, methyl 3-(4-(6-fluoro-2-oxo-2,3-dihydro-1H-benzo[d]imidazol-1-yl)piperidin-1-yl)-3-methylpyrrolidine-1-carboxylate]	14.7 nM	5.09 µM
